What was measured:
[1] = cited from earlier work; for PTH / hormonal activity compared with natural h-PTH: prior art, Jap. Pat. Unexam. Publ. No. 55-113753
[2] = target: T1, PTH receptor (Rattus norvegicus, UniProt P25961); assay: Assay of PTH activity: c-AMP generated on reaction with rat renal cortex PTH receptor preparation, parallel line assay against standard bovine PTH(1-34); assay type: biochemical; conditions: for h-PTH activity, times stronger than known h-PTH(1-34) and [Nle8, Nle18]-h-PTH(1-34): compared with h-PTH(1-34) and [Nle8, Nle18]-h-PTH(1-34); for PTH Activity: unlabelled sample, vs standard bovine PTH(1-34); for PTH Activity / PTH Activity After Labelling with 125I: rat renal cortex PTH receptor, c-AMP generation; for PTH Activity After Labelling with 125I: after labelling with iodine-125 (chloramine T)
T1 construct: A surface membrane was removed, and the renal cortex carved out and ice-cooled; from tissue; host or cells: rat (SD, male) renal cortex, crude membrane fraction (2200 x g precipitate)
T1 sequence (P25961 27-591): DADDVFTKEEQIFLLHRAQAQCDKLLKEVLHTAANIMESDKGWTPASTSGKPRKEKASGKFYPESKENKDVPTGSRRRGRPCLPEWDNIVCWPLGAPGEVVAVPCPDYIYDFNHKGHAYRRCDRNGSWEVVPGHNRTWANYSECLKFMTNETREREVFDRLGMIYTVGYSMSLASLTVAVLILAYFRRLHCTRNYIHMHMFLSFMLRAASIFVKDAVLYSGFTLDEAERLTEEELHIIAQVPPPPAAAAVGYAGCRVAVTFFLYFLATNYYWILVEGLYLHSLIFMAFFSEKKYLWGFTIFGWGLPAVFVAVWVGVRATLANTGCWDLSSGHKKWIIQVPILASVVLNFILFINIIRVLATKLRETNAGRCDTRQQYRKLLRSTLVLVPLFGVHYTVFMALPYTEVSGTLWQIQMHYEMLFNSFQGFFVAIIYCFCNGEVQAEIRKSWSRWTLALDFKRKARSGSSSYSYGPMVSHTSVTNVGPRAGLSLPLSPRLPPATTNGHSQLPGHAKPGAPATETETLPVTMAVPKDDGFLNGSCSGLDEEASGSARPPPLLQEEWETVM
Protocol: (1) Preparation of PTH receptor:
Rats, strain SD, male, weight 200-250 g, were decollated to bleed, laparotomized and excised of kidneys. A surface membrane was removed, and the renal cortex carved out and ice-cooled. The following operations should be carried out at a temperature as low as possible (0°-4° C.).
The renal cortex was immersed in a solution (hereinafter designated as solution A) of 10 mM Tris-HCl buffer (pH 7.5) containing 0.25 M sucrose and lmM EDTA. Three times the volume of solution A (ml) suspending the renal cortex (wet weight) was added to a renal cortex in a glass tube with Tefron (trade name) pestle and homogenized.
A homogenate was centrifuged for 10 minutes at 150×g, and the supernatant solution was further centrifuged for 15 mins. at 2200×g. The supernatant solution was discarded and the upper emulsion part of precipitate was suspended in a solution A. The said emulsion was centrifuged for 15 mins. at 2200×g. The precipitate was again suspended and frozen at -70° C. in a bottle stored at -20° C.
(2) Reaction with PTH and PTH-receptor:
Specimen was dissolved in 100 mM Tris-HCl buffer (ph 7.5) containing ATP-Mg 2 mM, MgCl2 10 mM, KCl 60 mM, GTP 20 μM, isobutyl methyl xanthine 1 mM, creatine phosphate 8 mM and bovine serum albumin (BSA) 0.2% to prepare 2 μg/ml and 10 μg/ml solutions. Standard bovine PTH(1-34) solution was also prepared in the same manner.
The above solutions [2 μg/ml and 10 μg/ml specimen] and bovine PTH(1-34) (50 μl) were each divided among eight glass test tubes, and kept in ice water in order to prevent ATP […] and to prepare test solutions. A stock solution of PTH receptor stored at -20° C. was thawed to room temperature. Creatine kinase, previously dissolved in solution A, was added thereto to prepare creatine kinase at 0.1 mg/ml and PTH receptor at 1.4 mg/ml as protein by adding solution A while keeping the solution in ice cooling. After the above test solutions were preincubated at 37° C. for several minutes, the PTH receptor-creatine kinase solution (each 50 μl) was added therein and incubated at 37° C. for 10 mins. 0.1 M acetate buffer (pH 4.0, 100 μl) was added, the mixture immediately placed in ice-water, and the tube heated in boiling water for one minute to stop the reaction.
(3) Assay of generated c-AMP:
Distilled water was added to the above reaction-stopped solution to 10-30 times dilution, and deproteinized by centrifugation for 15 mins. at 2000×g. An amount of c-AMP in a supernatant solution was assayed by RIA-kit (YASAMA SHOYU CO.)
(4) Determination of PTH activity:
The measured values of c-AMP hereinabove were converted to a unit of pM (pico mole)/mg PTH receptor-protein/minute as a designation of measured value. The measured value of the specimen was compared to the standard substance according to a parallel assay line two by two.

[3] = tested on: PTH receptors; assay: Affinity for PTH receptors (statement, no method given); assay type: binding; conditions: in words

Substance | PTH Activity [2] [U/mg] | PTH Activity After Labelling with 125I [2] [U/mg] | also measured
[Nle^8, Nle^18 ]-h-PTH(1-34) |  |  | PTH / hormonal activity compared with natural h-PTH [1]: approximately equal to but no more than that of natural h-PTH
[Nle^8, Nle^18, Phe^34 ]-h-PTH(1-34)NH2 | 5000 |  | h-PTH activity, times stronger than known h-PTH(1-34) and [Nle8, Nle18]-h-PTH(1-34) [2]: 1.5-2 times; affinity for PTH receptors compared with known h-PTH(1-34) and [Nle8, Nle18]-h-PTH(1-34) [3]: stronger affinity
[Nle^8, Nle^18, Tyr^34 ]-h-PTH(1-34) | 2930 | 2480 | PTH / hormonal activity compared with natural h-PTH [1]: only approximately equal to that of natural h-PTH(1-34)
[Nle^8, Nle^18, Tyr^34 ]-h-PTH(1-34)NH2 | 5030 | 5000 | PTH activity after labelling (in words) ([2]; after labelling with iodine-125): retains its PTH activity after labelling; h-PTH activity, times stronger than known h-PTH(1-34) and [Nle8, Nle18]-h-PTH(1-34) [2]: 1.5-2 times; biological activity in long term storage ([2]; labelled peptide, long term storage): retains its biological activity in long term storage; affinity for PTH receptors compared with known h-PTH(1-34) and [Nle8, Nle18]-h-PTH(1-34) [3]: stronger affinity
h-PTH(1-34) (SVSEIQLMHNLGKHLNSMERVEWLRKKLQDVHNF; Parathyroid hormone; UniProt P01270 32-65, looked up, fragment) [34-amino acid N-terminal fragment of human parathyroid hormone] |  |  | hormonal activity when labelled with iodine-125 ([1]; methionine at position-8 and -18 is oxidized): loses hormonal activity
h-PTH(1-34)NH2 | 5100 | > 150 | 
h-PTH: sample of the activity table; human parathyroid hormone, probably the h-PTH(1-34) fragment labelled in b29 | 3000 | > 100 | 

— US4656250A, “[Nle^8, Nle^18, Tyr^34 or Phe^34 ]-h-PTH peptide derivatives” (Toyo Jozo Kabushiki Kaisha, priority 1983, dated 1987)
